# Test results as given in the supplement of paper PMC10307832.
# Compound: COCC[n+]1c2c(n(Cc3cnccn3)c1C)C(=O)c1ccccc1C2=O [YM155] + CS(=O)(=O)N1CCN(Cc2cc3nc(-c4cccc5[nH]ncc45)nc(N4CCOCC4)c3s2)CC1 [Pictilisib] (partner 1 µM)
# Assay: relative viability (nuclei count vs DMSO), 5 days (fraction); higher = more cells survive
# Settings: first compound 0.006325 µM
# Summary of the method: (§1)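 Medians of duplicate plates are given as relative viability. That measure is the nuclei count in treated wells divided by the count in vehicle wells. Counts were taken on 4× images of lung cancer cell lines in 1536-well plates, 5 days after pin-tool dosing the day after seeding with one drug alone or a fixed anchor-drug dose plus five library-drug doses (not always all listed) in √10 steps.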
row,Cell Line,relative viability
1,NCI-H647,0.345
2,Calu-6,0.605
3,LCLC-97TM1,0.208
4,NCI-H1703,0.232
5,LXF-289,0.771
6,LU99A,0.335
7,NCI-H2023,0.23
8,NCI-H2228,0.278
9,NCI-H1437,0.404
10,NCI-H2009,0.796
11,EBC-1,0.345
12,COR-L 105,0.493
13,SK-LU-1,0.496
14,IA-LM,0.266
15,NCI-H661,0.422
16,CAL-12T,0.566
17,A549,0.454
18,SW 1573,0.465
19,NCI-H1650,0.573
20,COR-L23,0.636

# Same assay, conditions: first compound 0.02 µM
row,Cell Line,relative viability
1,EKVX,0.439
2,EPLC-272H,0.286
3,NCI-H520,0.255
4,NCI-H1563,0.626
5,NCI-H650,0.953
6,RERF-LC-KJ,0.55
7,HCC-827,1
8,NCI-H2087,0.931
9,SK-MES-1,0.377
10,NCI-H1299,0.845
11,NCI-H1651,0.556
12,UMC-11,0.824
13,NCI-H1355,0.462
14,H3255,0.477
15,NCI-H1792,0.318
16,NCI-H647,0.399
17,Calu-6,0.169
18,LCLC-97TM1,0.221

row,Cell Line,relative viability
1,NCI-H1703,0.248
2,LXF-289,0.752
3,LU99A,0.315
4,NCI-H2023,0.25
5,NCI-H2228,0.384
6,NCI-H1437,0.468
7,NCI-H2009,0.852
8,EBC-1,0.459
9,COR-L 105,0.447
10,SK-LU-1,0.483
11,IA-LM,0.367
12,NCI-H661,0.492
13,CAL-12T,0.557
14,A549,0.378
15,SW 1573,0.426
16,NCI-H1650,0.532
17,COR-L23,0.408

# Same assay, conditions: first compound 0.06325 µM
row,Cell Line,relative viability
1,EKVX,0.339
2,EPLC-272H,0.328
3,NCI-H520,0.293
4,NCI-H1563,0.75
5,NCI-H650,0.683
6,RERF-LC-KJ,0.593
7,HCC-827,1.09
8,NCI-H2087,0.642
9,SK-MES-1,0.24
10,NCI-H1299,0.516
11,NCI-H1651,0.473
12,UMC-11,0.787
13,NCI-H1355,0.514
14,H3255,0.424
15,NCI-H1792,0.267
16,NCI-H647,0.213
17,Calu-6,0.13
18,LCLC-97TM1,0.148

row,Cell Line,relative viability
1,NCI-H1703,0.116
2,LXF-289,0.549
3,LU99A,0.284
4,NCI-H2023,0.112
5,NCI-H2228,0.388
6,NCI-H1437,0.507
7,NCI-H2009,0.57
8,EBC-1,0.339
9,COR-L 105,0.404
10,SK-LU-1,0.545
11,IA-LM,0.141
12,NCI-H661,0.453
13,CAL-12T,0.392
14,A549,0.0793
15,SW 1573,0.0949
16,NCI-H1650,0.276
17,COR-L23,0.175

# Compound: COCC[n+]1c2c(n(Cc3cnccn3)c1C)C(=O)c1ccccc1C2=O [YM155] + Nc1ncn([C@H]2C[C@H](O)[C@@H](CO)O2)c(=O)n1 [Decitabine] (partner 2 µM)
# Assay: as above
# Settings: first compound 0.002 µM
# Summary of the method: as §1
row,Cell Line,relative viability
1,EKVX,0.332
2,EPLC-272H,0.322
3,NCI-H520,0.469
4,NCI-H650,0.329
5,RERF-LC-KJ,0.649
6,HCC-827,0.352
7,NCI-H2087,0.37
8,SK-MES-1,0.423
9,NCI-H1651,0.667
10,UMC-11,0.551
11,NCI-H1355,0.312
12,H3255,0.533
13,NCI-H1792,0.453
14,NCI-H647,0.482
15,LXF-289,0.354
16,LU99A,0.84
17,NCI-H2023,0.224
18,NCI-H1437,0.557
19,NCI-H2009,0.342
20,COR-L 105,0.552
21,SK-LU-1,0.57
22,NCI-H661,0.516
23,A549,0.413
24,NCI-H2342,0.729
25,SW 1573,0.369
26,NCI-H1650,0.382
27,COR-L23,0.439
28,NCI-H522,0.72

# Same assay, conditions: first compound 0.006325 µM
row,Cell Line,relative viability
1,EKVX,0.389
2,EPLC-272H,0.33
3,NCI-H520,0.531
4,NCI-H650,0.3
5,RERF-LC-KJ,0.644
6,HCC-827,0.408
7,NCI-H2087,0.282
8,SK-MES-1,0.289
9,NCI-H1651,0.613
10,UMC-11,0.574
